Measurements reported in US20150105349A1, “(R)-(-)-1,2-propanediol compositions and methods” (priority 2013, published 2015).

Key:
philtrum skin = philtrum skin cooling bioassay (subjective coolness rating 0-3); assay type: in vivo, human; settings: 49% distilled water, 1% ethanol
Excerpt: The term “alcoholic solvent” refers to a chemical with one to four carbons with at least one hydroxyl group attached to a carbon atom. A reliable place for topical application is the skin above the upper lip (above the vermilion border of the lips), on the philtrum, lateral to the philtrum until the nasolabial folds, and on the lower nostrils (subnasale). This part of the face is known to be densely innervated with cold receptors, second only to the surfaces of the eyeball and anogenitalia. Tingling, cool and cold sensations from the skin may be experienced and rated for time of onset and intensity.
The intervals for recording sensations are 5 to 10 minutes, until two successive zeros are obtained. The results (shown in the Figures) are averaged values of 4 to 6 separate trials in the same individual. The data are plotted using SigmaPlot (Systat Software, Point Richmond, Calif.) and a smoothing function with a negative exponential was used for analysis and statistical fit of the results. The onset of drug action is taken as the time to reach 2 units of coolness intensity, and offset of drug action is the time when coolness intensity drops below 2, after previously surpassing 2 units. […] The duration of cooling action is defined as the offset time minus the onset time and the primary index of effect. As described in Examples, the test compounds were tested at 2 to 10 mg/mL of vehicle.
For assays on the skin, the cooling agent(s) was dissolved in the alcoholic solvent to yield a 2, 2.5, 3, 5 or 10 mg/mL solution. Using a cotton-tipped applicator (e.g. Q-tips®) 0.10 to 0.25 mL of the test solution was applied to the skin above the upper lip, on the philtrum, and lateral to the philtrum up to the nasolabial folds, and the onset and duration of cooling sensations noted. […] The interval for recording sensations was at 5 to 10 minute intervals, until at least two successive zeros were obtained. The results were averaged values of 3 to 6 separate trials in the same individual. The “onset” is the time taken to reach a coolness intensity value of 2. […] The “off-set” is when the coolness intensity drops below 2, and the duration is the time of off-set minus the time of onset. The area under the curve (AUC) gives an estimate of the intensity and duration of drug action and can be obtained from the plotted data using SigmaPlot (Systat Software, Point Richmond, Calif.). The AUC unit is the product of cooling intensity x min.

[1] = biological target: T1, cloned hTRPM8 channel (human TRPM8 gene, expressed in CHO cells) (Homo sapiens, UniProt Q7Z2W7); assay: agonist activity on cloned hTRPM8 channel, Fluo-8 calcium kit, FLIPR; assay type: cell-based; settings: for Potency Relative to I-menthol / EC50: TRPM8 receptor assay; for EC50: read-out: EC50 μM (95% C, L.)
T1 construct: host or cells: CHO cells
Description: The in vitro effects of test articles were evaluated on cloned hTRPM8 channel (encoded by the human TRPM8 gene, expressed in CHO cells) using a Fluo-8 calcium kit and a Fluorescence Imaging Plate Reader (FLIPR^TETRA™) instrument. […] The total number of carbons in these trialkylphosphine oxides ranged from 12 to 15.
To further examine solvent-receptor interactions, stock solutions of 1-7 [1-(Diisopropyl-phosphinoyl)-heptane] were prepared in dimethyl sulfoxide (DMSO) or DMSO containing 10% or 30% by volume of the three isomers of 1,2-propanediol, (R/S-PD, R-PD, and S-PD) and stored frozen. Six dose levels were tested ranging from 0.003 to 3 μM. Ten μl of the test article solution were added to 40 μl of cells in HBPS in glass-lined 384-well compound plates, and placed into the FLIPR instrument for the fluorescence readout (Molecular Devices Corporation, Union City, Calif.).

[2] = test system: axillary skin lesion of plaque psoriasis (itch, burning); assay: topical application to axillary plaque psoriasis lesion, one subject; assay type: in vivo, human; settings: 2% in 1% ethanol-99% (R)-1,2-propanediol, swab stick, first application at night
Excerpt: A person with an 8-year history of plaque psoriasis complained of an axillary skin lesion that itched, had burning sensations, and kept them awake at night. Their condition was severe and chronic. Their parent complained that they had to vacuum their bedroom every day in order to remove flaking skin debris. […] They volunteered to try CPS-148, 2% dissolved in 1% ethanol-99% (R)-1,2-propanediol, and was given instructions on how to apply the solution to their site of itch with a swab stick (Q-tip™). They claimed after the first time of application at night the burning sensations and itch disappeared within 5 to 10 min and they were able to have a good nights sleep. They continued to use the solution on an “as-needed basis” for one month and claimed that they slept much better than before.

[3] = test system: itchy scalp, seborrheic dermatitis; assay: topical application to itchy scalp in seborrheic dermatitis, one subject; assay type: in vivo, human; settings: 10 mg/mL in 12% (S)-1,2-propanediol, 37% (R)-1,2-propanediol, 1% ethanol, 50% water
Description: A subject with severe seborrheic dermatitis complained of an itchy scalp which was not resolved with anti-dandruff shampoos. […] The delivery was made using a 20 mL reservoir bottle capped with a Yorker spout. They remarked that routine application of the solution on an “as needed basis” stopped the itch for 6 to 8 hours and repeat applications for one week allowed their scalp to feel refreshed and normal. They proposed to pay for a continued supply of the solution.

[4] = test system: periorbital skin and skin above the cheekbone; assay: cosmetic wipe over periorbital skin and skin above the cheekbone, six female subjects; assay type: in vivo, human; settings: 10 mg/mL in water (50%), 10% (S)-, 40% (R)-1,2-propanediol
Description: Six female subjects working at a cosmetics company volunteered to try topical applications of 1-7 and/or 1-8, formulated at 10 mg/mL in water (50%) and 10% (S)-1,2-propanediol, 40% (R)-1,2-propanediol wt/wt. The liquid was put on a cotton square and wiped over the periorbital skin and the skin above the cheekbone. All the subjects remarked on a refreshing coolness on the skin at the sites of application within 2 min after application. There was a “wow” effect, that was considered pleasant and stimulating. […] Four of the six subjects said they felt more “awake and energetic.”

T1 sequence (Q7Z2W7 whole entry): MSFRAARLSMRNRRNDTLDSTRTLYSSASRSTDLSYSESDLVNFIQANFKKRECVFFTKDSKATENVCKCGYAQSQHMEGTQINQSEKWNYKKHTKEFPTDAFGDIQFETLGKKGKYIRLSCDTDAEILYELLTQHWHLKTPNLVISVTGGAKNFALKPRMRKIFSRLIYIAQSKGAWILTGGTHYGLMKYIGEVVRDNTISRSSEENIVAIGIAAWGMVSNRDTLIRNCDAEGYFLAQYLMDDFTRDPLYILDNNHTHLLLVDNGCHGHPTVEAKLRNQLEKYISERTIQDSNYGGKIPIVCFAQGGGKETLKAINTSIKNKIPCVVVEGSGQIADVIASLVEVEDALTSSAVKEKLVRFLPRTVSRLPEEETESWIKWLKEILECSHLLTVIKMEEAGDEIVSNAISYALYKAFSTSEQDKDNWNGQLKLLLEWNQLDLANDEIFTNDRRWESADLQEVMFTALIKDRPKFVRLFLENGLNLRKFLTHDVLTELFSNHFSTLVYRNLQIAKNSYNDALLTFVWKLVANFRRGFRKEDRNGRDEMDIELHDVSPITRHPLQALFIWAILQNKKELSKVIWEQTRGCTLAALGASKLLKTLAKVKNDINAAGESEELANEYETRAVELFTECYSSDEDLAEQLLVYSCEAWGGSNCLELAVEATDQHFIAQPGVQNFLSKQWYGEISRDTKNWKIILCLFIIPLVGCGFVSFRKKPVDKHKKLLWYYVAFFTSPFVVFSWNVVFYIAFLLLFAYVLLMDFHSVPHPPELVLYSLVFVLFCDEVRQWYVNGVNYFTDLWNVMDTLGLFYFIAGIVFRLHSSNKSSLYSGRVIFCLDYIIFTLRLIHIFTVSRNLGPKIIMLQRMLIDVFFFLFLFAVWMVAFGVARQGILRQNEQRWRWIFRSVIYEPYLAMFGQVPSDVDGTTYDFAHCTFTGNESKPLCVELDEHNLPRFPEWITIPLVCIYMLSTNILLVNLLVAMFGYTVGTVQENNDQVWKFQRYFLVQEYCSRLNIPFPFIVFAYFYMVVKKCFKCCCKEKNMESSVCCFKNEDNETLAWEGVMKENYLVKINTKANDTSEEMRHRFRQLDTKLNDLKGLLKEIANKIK

Compound	Ratio of AUC 75/25% R/S to 25/75% R/S (fold increase in cooling activity) (philtrum skin)	agonism at the TRPM8 ion channel [1]	Potency Relative to I-menthol [1]	EC50 [1] [µM]	time to disappearance of burning sensations and itch [2] [min]	duration for which itch was stopped [3] [h]	irritation or redness on the skin after applications [4]	time facial skin felt cool and dry after application ([4]; all subjects)
CCCCCCCP(=O)(C(C)CC)C(C)CC (centres unmarked) [CPS-148, 1-(Di-sec-butyl-phosphinoyl)-heptane]	2.3	activates TRPM8	3.4	1.1	5 to 10	–	–	–
CCCCCCCCP(=O)(C(C)C)C(C)C [1-8]	1.5	–	5.4	0.7	–	6 to 8	no irritation or redness	at least one hour
